Experimental data: US6339079B1, “Steroid sulfamates, method for the production and use thereof” (id pharma GmbH, priority 1997, dated 2002)

Key:
[1] = estrogenic effectiveness in vivo; conditions: applied orally in vivo
[2] = target: T1, steroid sulfatase (Homo sapiens, UniProt P08842); conditions: found by M. J. Reed et al.; cited from earlier work
T1 sequence (P08842 22-583): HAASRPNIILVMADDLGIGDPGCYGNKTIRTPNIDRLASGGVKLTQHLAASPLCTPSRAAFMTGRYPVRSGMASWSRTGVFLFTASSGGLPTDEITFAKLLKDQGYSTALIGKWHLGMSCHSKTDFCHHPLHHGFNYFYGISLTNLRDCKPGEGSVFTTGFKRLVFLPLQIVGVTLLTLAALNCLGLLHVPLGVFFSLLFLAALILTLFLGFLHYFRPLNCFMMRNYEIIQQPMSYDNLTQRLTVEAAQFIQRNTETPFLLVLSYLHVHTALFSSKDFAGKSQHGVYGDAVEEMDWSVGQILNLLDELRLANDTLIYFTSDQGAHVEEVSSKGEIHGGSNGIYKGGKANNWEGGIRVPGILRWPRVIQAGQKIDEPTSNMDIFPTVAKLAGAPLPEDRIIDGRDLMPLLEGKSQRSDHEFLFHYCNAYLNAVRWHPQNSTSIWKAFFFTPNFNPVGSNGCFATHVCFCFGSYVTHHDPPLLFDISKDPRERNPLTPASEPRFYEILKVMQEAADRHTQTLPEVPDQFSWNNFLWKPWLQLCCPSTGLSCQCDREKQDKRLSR

SMILES	estrogenic effectiveness compared with estradiol-3-sulfamate ([1]; relative to estradiol-3-sulfamate)	estrogenic effectiveness compared with estriol ([1]; relative to estriol)	sulfatase-inhibiting activity [2]
C[C@]12CC[C@@H]3c4ccc(OS(N)(=O)=O)cc4CC[C@H]3[C@@H]1C[C@@H](Br)[C@@H]2O [16α-bromoestradiol-3-sulfamate, 16α-Bromo-3-sulfamoyloxy-13β-methyl-1,3,5(10)-gonatrien-17β-ol]	three times more effective	five times more effective	–
C[C@]12CC[C@@H]3c4ccc(OS(N)(=O)=O)cc4CC[C@H]3[C@@H]1CC[C@@H]2O [estradiol-3-sulfamate]	–	–	strong sulfatase-inhibiting activity
C[C@]12CC[C@@H]3c4ccc(OS(N)(=O)=O)cc4CC[C@H]3[C@@H]1CCC2=O [estrone-3-sulfamate]	–	–	strong sulfatase-inhibiting activity
